Results taken from publication PMC10093837, “Rutin Concentration and Characterization of Rutinosidase in Perennial Buckwheat (Fagopyrum cymosum) and Its Application in Foods” (Foods, 2023).

System: T1, FC rutinosidase
T1 construct: gene f3g; native, purified from dehulled seeds (Q-Sepharose, Superdex 200, Mono Q twice); 58,400 +/- 2700 Da by gel filtration; single isozyme in native-PAGE
Assay: UPLC of released quercetin; Lineweaver-Burk
Format: biochemical, Fagopyrum cymosum
Conditions: 50 mM acetate-LiOH pH 5.0, 20% (v/v) methanol, 25 °C (standard assay)
Text: UPLC of released quercetin; Lineweaver-Burk on FC rutinosidase

Km: 367 ± 23.5 µM
SMILES: C[C@@H]1O[C@@H](OC[C@H]2O[C@@H](Oc3c(-c4ccc(O)c(O)c4)oc4cc(O)cc(O)c4c3=O)[C@H](O)[C@@H](O)[C@@H]2O)[C@H](O)[C@H](O)[C@H]1O [rutin]
